From patent US20140120083A1, “TREATMENT OF CANCERS USING PI3 KINASE ISOFORM MODULATORS” (INFINITY PHARMACEUTICALS, INC., priority 2012, published 2014)
Where “and” joins values, the source holds several entries; their conditions need not be identical. Equal values may be shown once.

Assays:
Assay type in all cases: biochemical
[1] = biological target: T1, PI3K γ (Homo sapiens, UniProt P48736); assay: In vitro IC50, PI3K γ
T1 construct: purchased Sigma
Text: (§1) An exemplary system is PI 3-Kinase (human) HTRF™ Assay from Upstate.

[2] = biological target: PI3K β (Homo sapiens, UniProt P42338); assay: In vitro IC50, PI3K β
Text: as §1

[3] = biological target: T2, PI3K α (Homo sapiens, UniProt P42336); assay: In vitro IC50, PI3K α
T2 construct: purchased Upstate
Text: as §1

[4] = biological target: PI3K δ (Homo sapiens, UniProt O00329); assay: In vitro IC50, PI3K δ; set-up: purchased Upstate
Text: as §1

T1 sequence (P48736 whole entry): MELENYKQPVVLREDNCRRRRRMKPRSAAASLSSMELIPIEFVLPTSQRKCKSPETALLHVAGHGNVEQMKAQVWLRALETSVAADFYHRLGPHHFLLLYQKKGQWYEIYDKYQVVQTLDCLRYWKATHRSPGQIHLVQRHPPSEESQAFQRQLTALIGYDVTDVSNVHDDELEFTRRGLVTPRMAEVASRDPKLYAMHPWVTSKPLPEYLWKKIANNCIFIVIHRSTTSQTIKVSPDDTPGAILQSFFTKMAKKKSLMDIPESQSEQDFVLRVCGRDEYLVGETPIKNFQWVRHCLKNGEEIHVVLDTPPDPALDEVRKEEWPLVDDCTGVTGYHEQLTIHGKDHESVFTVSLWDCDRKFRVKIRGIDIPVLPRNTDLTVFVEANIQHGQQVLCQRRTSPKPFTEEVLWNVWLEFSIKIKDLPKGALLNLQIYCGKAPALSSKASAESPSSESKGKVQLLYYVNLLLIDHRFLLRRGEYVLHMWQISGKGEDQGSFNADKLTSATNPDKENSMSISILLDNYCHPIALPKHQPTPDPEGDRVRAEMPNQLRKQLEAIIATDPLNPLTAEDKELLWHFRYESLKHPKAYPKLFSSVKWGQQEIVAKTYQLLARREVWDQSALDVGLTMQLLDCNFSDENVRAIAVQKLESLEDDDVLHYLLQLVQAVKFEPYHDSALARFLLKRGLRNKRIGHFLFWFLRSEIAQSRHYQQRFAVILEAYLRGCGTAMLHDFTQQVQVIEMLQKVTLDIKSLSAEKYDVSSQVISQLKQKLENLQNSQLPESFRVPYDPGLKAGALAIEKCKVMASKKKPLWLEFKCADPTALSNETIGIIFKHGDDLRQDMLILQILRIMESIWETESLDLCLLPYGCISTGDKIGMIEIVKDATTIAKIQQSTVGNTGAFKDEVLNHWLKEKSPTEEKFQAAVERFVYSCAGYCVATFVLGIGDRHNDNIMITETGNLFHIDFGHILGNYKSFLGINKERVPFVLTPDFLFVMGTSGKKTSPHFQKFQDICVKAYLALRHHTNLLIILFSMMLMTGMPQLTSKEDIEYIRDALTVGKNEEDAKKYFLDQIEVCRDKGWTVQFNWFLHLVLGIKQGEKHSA
Chain of PI3K β (P42338 whole entry): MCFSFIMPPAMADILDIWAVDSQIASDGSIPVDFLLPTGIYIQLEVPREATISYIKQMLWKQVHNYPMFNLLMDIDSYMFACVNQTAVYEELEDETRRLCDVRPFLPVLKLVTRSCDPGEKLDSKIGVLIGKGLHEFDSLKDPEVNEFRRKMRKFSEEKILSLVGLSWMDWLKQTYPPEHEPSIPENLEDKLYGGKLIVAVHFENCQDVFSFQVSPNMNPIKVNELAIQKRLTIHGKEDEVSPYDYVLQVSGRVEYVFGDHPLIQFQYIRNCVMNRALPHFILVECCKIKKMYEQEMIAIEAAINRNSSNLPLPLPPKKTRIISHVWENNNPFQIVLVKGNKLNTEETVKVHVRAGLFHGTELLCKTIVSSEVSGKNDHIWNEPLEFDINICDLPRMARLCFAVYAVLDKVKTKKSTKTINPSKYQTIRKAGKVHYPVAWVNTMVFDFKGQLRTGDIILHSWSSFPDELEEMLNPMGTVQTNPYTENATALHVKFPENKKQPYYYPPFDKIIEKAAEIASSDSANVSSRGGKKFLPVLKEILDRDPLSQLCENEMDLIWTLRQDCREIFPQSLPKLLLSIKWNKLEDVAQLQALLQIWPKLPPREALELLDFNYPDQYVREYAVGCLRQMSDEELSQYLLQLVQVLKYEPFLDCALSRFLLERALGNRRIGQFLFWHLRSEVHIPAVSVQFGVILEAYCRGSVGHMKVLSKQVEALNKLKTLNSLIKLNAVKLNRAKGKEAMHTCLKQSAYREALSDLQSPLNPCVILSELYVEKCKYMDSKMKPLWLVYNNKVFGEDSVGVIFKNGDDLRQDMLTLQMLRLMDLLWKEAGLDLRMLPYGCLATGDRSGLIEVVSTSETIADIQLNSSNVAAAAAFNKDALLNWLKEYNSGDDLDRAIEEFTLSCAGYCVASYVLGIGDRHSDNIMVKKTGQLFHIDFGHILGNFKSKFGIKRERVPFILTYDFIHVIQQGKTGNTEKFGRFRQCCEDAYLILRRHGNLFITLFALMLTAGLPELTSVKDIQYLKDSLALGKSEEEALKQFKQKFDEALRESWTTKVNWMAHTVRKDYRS
Chain of PI3K δ (O00329 whole entry): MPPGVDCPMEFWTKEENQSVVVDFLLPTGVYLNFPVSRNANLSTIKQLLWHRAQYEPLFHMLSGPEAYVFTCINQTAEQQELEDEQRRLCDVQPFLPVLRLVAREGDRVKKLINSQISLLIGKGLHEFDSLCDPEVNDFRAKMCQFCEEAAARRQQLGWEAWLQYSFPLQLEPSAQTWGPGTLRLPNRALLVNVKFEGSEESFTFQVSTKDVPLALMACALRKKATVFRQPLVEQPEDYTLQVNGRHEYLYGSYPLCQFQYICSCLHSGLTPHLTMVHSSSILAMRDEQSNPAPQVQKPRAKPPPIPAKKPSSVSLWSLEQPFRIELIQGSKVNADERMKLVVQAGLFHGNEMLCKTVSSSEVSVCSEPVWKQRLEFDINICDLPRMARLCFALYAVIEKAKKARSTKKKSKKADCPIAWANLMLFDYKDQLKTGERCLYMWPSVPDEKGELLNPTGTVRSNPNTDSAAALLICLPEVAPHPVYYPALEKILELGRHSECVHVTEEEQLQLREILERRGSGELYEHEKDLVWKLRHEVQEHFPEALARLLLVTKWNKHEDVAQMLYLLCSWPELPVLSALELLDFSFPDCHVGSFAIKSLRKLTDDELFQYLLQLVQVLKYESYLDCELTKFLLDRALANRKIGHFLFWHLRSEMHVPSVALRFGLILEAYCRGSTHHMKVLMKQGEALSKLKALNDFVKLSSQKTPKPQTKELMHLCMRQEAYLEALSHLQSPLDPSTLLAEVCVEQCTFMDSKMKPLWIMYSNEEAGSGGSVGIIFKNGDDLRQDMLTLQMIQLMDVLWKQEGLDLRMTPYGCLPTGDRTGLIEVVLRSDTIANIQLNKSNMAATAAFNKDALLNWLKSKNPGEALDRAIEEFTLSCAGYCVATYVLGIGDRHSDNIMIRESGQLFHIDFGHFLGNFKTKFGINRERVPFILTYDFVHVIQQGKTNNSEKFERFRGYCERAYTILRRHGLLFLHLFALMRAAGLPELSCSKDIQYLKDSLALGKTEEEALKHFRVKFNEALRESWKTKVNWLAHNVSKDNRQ
Chain of PI3K δ (P27986 whole entry partner): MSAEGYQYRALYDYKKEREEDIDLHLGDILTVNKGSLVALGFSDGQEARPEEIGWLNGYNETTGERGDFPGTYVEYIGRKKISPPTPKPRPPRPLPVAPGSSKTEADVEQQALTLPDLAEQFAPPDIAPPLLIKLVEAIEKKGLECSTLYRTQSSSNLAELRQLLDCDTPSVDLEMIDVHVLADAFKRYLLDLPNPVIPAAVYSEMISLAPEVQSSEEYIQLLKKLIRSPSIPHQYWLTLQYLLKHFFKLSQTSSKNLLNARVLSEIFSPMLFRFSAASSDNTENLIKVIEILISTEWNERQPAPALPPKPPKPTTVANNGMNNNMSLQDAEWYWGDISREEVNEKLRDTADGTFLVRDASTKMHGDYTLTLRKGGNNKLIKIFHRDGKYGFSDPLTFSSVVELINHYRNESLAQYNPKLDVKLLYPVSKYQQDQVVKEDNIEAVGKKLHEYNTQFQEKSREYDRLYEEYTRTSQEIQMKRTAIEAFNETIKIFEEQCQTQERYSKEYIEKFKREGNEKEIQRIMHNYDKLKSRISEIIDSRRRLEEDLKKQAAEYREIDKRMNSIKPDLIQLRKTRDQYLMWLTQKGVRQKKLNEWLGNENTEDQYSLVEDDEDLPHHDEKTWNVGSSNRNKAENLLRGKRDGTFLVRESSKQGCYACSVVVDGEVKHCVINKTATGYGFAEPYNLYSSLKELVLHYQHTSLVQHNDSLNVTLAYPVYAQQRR
T2 sequence (P42336 whole entry): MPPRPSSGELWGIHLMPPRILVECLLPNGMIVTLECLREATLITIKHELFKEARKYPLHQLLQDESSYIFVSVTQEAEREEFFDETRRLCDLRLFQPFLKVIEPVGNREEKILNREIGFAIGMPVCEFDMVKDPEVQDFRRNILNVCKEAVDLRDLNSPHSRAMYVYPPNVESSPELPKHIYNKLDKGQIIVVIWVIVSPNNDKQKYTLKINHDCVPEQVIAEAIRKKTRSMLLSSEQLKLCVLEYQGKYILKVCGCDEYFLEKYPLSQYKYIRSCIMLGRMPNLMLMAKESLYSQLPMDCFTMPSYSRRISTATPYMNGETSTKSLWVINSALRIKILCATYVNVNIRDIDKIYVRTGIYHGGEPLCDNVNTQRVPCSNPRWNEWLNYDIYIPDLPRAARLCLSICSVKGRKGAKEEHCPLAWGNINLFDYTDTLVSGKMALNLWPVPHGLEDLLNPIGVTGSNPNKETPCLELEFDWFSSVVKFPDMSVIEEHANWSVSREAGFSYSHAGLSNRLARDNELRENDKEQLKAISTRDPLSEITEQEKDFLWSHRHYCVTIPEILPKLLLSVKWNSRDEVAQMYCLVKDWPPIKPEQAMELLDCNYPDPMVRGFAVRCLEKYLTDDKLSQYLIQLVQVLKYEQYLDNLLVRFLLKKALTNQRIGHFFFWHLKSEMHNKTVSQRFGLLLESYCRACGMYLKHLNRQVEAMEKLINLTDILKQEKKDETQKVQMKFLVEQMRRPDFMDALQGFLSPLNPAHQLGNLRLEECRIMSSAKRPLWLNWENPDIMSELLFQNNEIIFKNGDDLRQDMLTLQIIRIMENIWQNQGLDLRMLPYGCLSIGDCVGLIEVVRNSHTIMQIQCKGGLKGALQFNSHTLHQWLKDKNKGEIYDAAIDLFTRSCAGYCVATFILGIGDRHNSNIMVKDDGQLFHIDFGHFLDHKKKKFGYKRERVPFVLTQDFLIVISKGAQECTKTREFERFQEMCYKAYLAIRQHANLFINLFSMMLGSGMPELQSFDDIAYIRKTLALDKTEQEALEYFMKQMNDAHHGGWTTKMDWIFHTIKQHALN
T2 sequence (P27986 whole entry partner): as the sequence (P27986 whole entry partner) above

Cc1cccc2cc(Cn3nc(-c4cc(O)cc(F)c4)c4c(N)ncnc43)n(-c3ccccc3F)c(=O)c12 [Compound 3]
IC50 [1]: < 0.1 µM | IC50 [2]: < 10 µM | IC50 [3]: < 10 µM | IC50 [4]: < 0.1 µM

Cc1ccccc1-n1c(Cn2nc(-c3cc(O)cc(F)c3)c3c(N)ncnc32)cc2cccc(C)c2c1=O [Compound 7]
IC50 [2]: < 1 µM | IC50 [3]: < 10 µM

Cc1cccc2cc(Cn3nc(C#CCO)c4c(N)ncnc43)n(-c3ccccc3F)c(=O)c12 [Compound 8]
IC50 [1]: < 1 µM | IC50 [2]: > 10 µM | IC50 [3]: > 10 µM | IC50 [4]: < 0.1 µM

Cc1cccc2cc(Cn3nc(-c4ccc(F)c(O)c4)c4c(N)ncnc43)n(-c3ccccc3F)c(=O)c12 [Compound 9]
IC50 [1]: < 1 µM | IC50 [2]: > 10 µM | IC50 [3]: > 10 µM | IC50 [4]: < 0.1 µM

Cc1cccc2cc(Cn3nc(-c4cccc(O)c4)c4c(N)ncnc43)n(-c3ccccc3F)c(=O)c12 [Compound 10]
IC50 [1]: < 1 µM | IC50 [2]: > 10 µM | IC50 [3]: > 10 µM | IC50 [4]: < 0.1 µM

Cc1ccccc1-n1c(Cn2nc(C#CCO)c3c(N)ncnc32)cc2cccc(C)c2c1=O [Compound 11]
IC50 [1]: < 1 µM | IC50 [2]: > 10 µM | IC50 [3]: > 10 µM | IC50 [4]: < 0.1 µM

Cc1ccccc1-n1c(Cn2nc(-c3ccc(F)c(O)c3)c3c(N)ncnc32)cc2cccc(C)c2c1=O [Compound 12]
IC50 [1]: < 0.1 µM | IC50 [2]: < 10 µM | IC50 [3]: > 10 µM | IC50 [4]: < 0.1 µM

Cc1ccccc1-n1c(Cn2nc(-c3cccc(O)c3)c3c(N)ncnc32)cc2cccc(C)c2c1=O [Compound 13]
IC50 [1]: < 0.1 µM | IC50 [2]: < 10 µM | IC50 [3]: > 10 µM

Cc1ccccc1-n1c(Cn2nc(C#CC3CC3)c3c(N)ncnc32)cc2cccc(C)c2c1=O [Compound 14]
IC50 [1]: < 1 µM | IC50 [2]: > 10 µM | IC50 [3]: > 10 µM | IC50 [4]: < 1 µM

COc1cc(-c2nn(Cc3cc4cccc(C)c4c(=O)n3-c3ccccc3C)c3ncnc(N)c23)ccc1Cl [Compound 21]
IC50 [1]: < 0.1 µM | IC50 [2]: > 10 µM | IC50 [3]: > 10 µM | IC50 [4]: < 1 µM

COc1cc(-c2nn(Cc3cc4cccc(C)c4c(=O)n3-c3ccccc3F)c3ncnc(N)c23)ccc1Cl [Compound 22]
IC50 [1]: < 1 µM | IC50 [2]: > 10 µM | IC50 [3]: > 10 µM | IC50 [4]: < 10 µM

Cc1ccccc1-n1c(Cn2nc(-c3ccc(Cl)c(O)c3)c3c(N)ncnc32)cc2cccc(C)c2c1=O [Compound 23]
IC50 [1]: < 0.1 µM | IC50 [2]: < 10 µM | IC50 [3]: > 10 µM | IC50 [4]: < 0.1 µM

Cc1ccccc1-n1c(Cn2nc(-c3ccc(O)c(Cl)c3)c3c(N)ncnc32)cc2cccc(C)c2c1=O [Compound 25]
IC50 [1]: < 0.1 µM | IC50 [2]: < 10 µM | IC50 [3]: > 10 µM | IC50 [4]: < 0.1 µM

Cc1cccc2cc(Cn3nc(-c4ccc(O)c(Cl)c4)c4c(N)ncnc43)n(-c3ccccc3F)c(=O)c12 [Compound 26]
IC50 [1]: < 0.1 µM | IC50 [2]: > 10 µM | IC50 [3]: > 10 µM | IC50 [4]: < 1 µM

Cc1ccccc1-n1c(Cn2nc(-c3ccc(F)cc3)c3c(N)ncnc32)cc2cccc(C)c2c1=O [Compound 27]
IC50 [1]: < 1 µM | IC50 [2]: > 10 µM | IC50 [3]: > 10 µM | IC50 [4]: < 10 µM

Cc1cccc2cc(Cn3nc(-c4cccc(Cl)c4)c4c(N)ncnc43)n(-c3ccccc3F)c(=O)c12 [Compound 38]
IC50 [1]: > 10 µM and < 10 µM | IC50 [2]: > 10 µM | IC50 [4]: < 10 µM

CC(=O)Nc1nc2ccc(-c3nn(Cc4cc5cccc(C)c5c(=O)n4-c4ccccc4C)c4ncnc(N)c34)cc2s1 [Compound 53]
IC50 [1]: < 0.1 µM | IC50 [2]: < 10 µM | IC50 [3]: < 1 µM

Cc1cccc2cc(Cn3nc(I)c4c(N)ncnc43)n(-c3ccccc3C(C)C)c(=O)c12 [Compound 75]
IC50 [1]: < 0.1 µM | IC50 [2]: < 10 µM | IC50 [4]: < 0.1 µM

Cc1cccc2cc(Cn3nc(I)c4c(N)ncnc43)n(-c3ccccc3Cl)c(=O)c12 [Compound 76]
IC50 [1]: < 1 µM | IC50 [2]: > 10 µM | IC50 [4]: < 0.1 µM

CCc1ccccc1-n1c(Cn2nc(I)c3c(N)ncnc32)cc2cccc(C)c2c1=O [Compound 77]
IC50 [1]: < 0.1 µM | IC50 [2]: < 10 µM | IC50 [4]: < 0.1 µM

Cc1ccncc1-n1c(Cn2nc(I)c3c(N)ncnc32)cc2cccc(C)c2c1=O [Compound 78]
IC50 [1]: < 1 µM | IC50 [2]: > 10 µM | IC50 [4]: < 0.1 µM

Cc1ccccc1-n1c(Cn2nc(C#C[C@H](C)O)c3c(N)ncnc32)cc2cccc(C)c2c1=O [Compound 85]
IC50 [2]: < 10 µM | IC50 [3]: > 10 µM | IC50 [4]: < 1 µM

Cc1cccc2cc(Cn3nc(-c4cc(O)cc(F)c4)c4c(N)ncnc43)n(C3CCCCC3)c(=O)c12 [Compound 110]
IC50 [2]: < 10 µM | IC50 [3]: > 10 µM | IC50 [4]: < 0.1 µM

Cc1cccc2cc(Cn3nc(-c4cccc(O)c4)c4c(N)ncnc43)n(C3CCCCC3)c(=O)c12 [Compound 111]
IC50 [2]: < 10 µM | IC50 [3]: > 10 µM | IC50 [4]: < 0.1 µM

Cc1cccc2cc(Cn3nc(C#C[C@@H](C)O)c4c(N)ncnc43)n(C3CCCCC3)c(=O)c12 [Compound 112]
IC50 [2]: > 10 µM | IC50 [3]: > 10 µM | IC50 [4]: < 0.1 µM

Cc1cccc2cc(Cn3nc(-c4cccc(O)c4)c4c(N)ncnc43)n(C3CCC3)c(=O)c12 [Compound 114]
IC50 [2]: < 10 µM | IC50 [3]: > 10 µM | IC50 [4]: < 0.1 µM

Cc1cccc2cc(Cn3nc(-c4cc(O)cc(F)c4)c4c(N)ncnc43)n(C3CCC3)c(=O)c12 [Compound 115]
IC50 [2]: < 10 µM | IC50 [3]: < 10 µM | IC50 [4]: < 0.1 µM

CC(=O)Nc1nc2ccc(-c3nn(Cc4cc5cccc(C)c5c(=O)n4C)c4ncnc(N)c34)cc2s1 [Compound 153]
IC50 [2]: < 1 µM | IC50 [3]: < 0.1 µM | IC50 [4]: < 0.1 µM

CC(=O)Nc1nc2ccc(-c3nn(Cc4cc5cccc(C)c5c(=O)n4C(C)C)c4ncnc(N)c34)cc2s1 [Compound 154]
IC50 [2]: < 10 µM | IC50 [3]: < 0.1 µM | IC50 [4]: < 0.1 µM

CC(=O)Nc1nc2ccc(-c3nn(Cc4cc5cccc(C)c5c(=O)n4C4CC4)c4ncnc(N)c34)cc2s1 [Compound 155]
IC50 [2]: < 0.1 µM | IC50 [3]: < 0.1 µM | IC50 [4]: < 0.1 µM

CC(=O)Nc1nc2ccc(-c3nn(Cc4cc5cccc(Cl)c5c(=O)n4C4CC4)c4ncnc(N)c34)cc2s1 [Compound 156]
IC50 [2]: < 0.1 µM | IC50 [3]: < 0.1 µM | IC50 [4]: < 0.1 µM

CC(=O)Nc1nc2ccc(-c3nn(Cc4cc5cccc(Cl)c5c(=O)n4C(C)C)c4ncnc(N)c34)cc2s1 [Compound 157]
IC50 [2]: < 0.1 µM | IC50 [3]: < 0.1 µM | IC50 [4]: < 0.1 µM

CC(=O)Nc1nc2ccc(-c3nn(Cc4cc5cccc(F)c5c(=O)n4C(C)C)c4ncnc(N)c34)cc2s1 [Compound 158]
IC50 [2]: < 10 µM | IC50 [3]: < 0.1 µM | IC50 [4]: < 0.1 µM

CC(=O)Nc1nc2ccc(-c3nn(Cc4cc5cccc(C)c5c(=O)n4C4CCC4)c4ncnc(N)c34)cc2s1 [Compound 159]
IC50 [2]: < 1 µM | IC50 [3]: < 0.1 µM | IC50 [4]: < 0.1 µM

Cc1ccccc1-n1c(Cn2nc(-c3cnn(CCO)c3)c3c(N)ncnc32)cc2cccc(C)c2c1=O [Compound 163]
IC50 [1]: < 1 µM | IC50 [2]: > 10 µM | IC50 [3]: > 10 µM

CC(=O)Nc1nc2ccc(-c3nn(Cc4cc5cccc(C)c5c(=O)n4-c4cccc(F)c4)c4ncnc(N)c34)cc2s1 [Compound 178]
IC50 [1]: < 0.1 µM | IC50 [2]: < 10 µM | IC50 [4]: < 0.1 µM

Cc1ccccc1-n1c(CN(C)c2ncnc3[nH]cnc23)cc2cccc(C)c2c1=O [Compound 184]
IC50 [1]: < 10 µM | IC50 [2]: > 10 µM | IC50 [3]: > 10 µM

Cc1cccc2cc([C@H](C)Nc3ncnc4[nH]cnc34)n(C3CC3)c(=O)c12 [Compound 200]
IC50 [1]: < 0.1 µM | IC50 [2]: < 0.1 µM | IC50 [4]: < 0.1 µM

CCC(Nc1ncnc2[nH]cnc12)c1cc2cccc(C)c2c(=O)n1-c1c(F)cccc1F (centres unmarked) [Compound 217]
IC50 [2]: > 10 µM | IC50 [4]: < 10 µM

Cc1cccc2cc([C@H](C)Nc3c(C#N)cnc4ccccc34)n(-c3ccccc3)c(=O)c12 [Compound 246]
IC50 [1]: < 10 µM | IC50 [3]: > 10 µM | IC50 [4]: < 10 µM

CNc1ncc(Cl)c(N[C@@H](C)c2cc3cccc(C)c3c(=O)n2-c2ccccc2)n1 [Compound 250]
IC50 [1]: < 1 µM | IC50 [3]: > 10 µM | IC50 [4]: < 1 µM

Cc1cccc2cc([C@H](C)Nc3ncnc4[nH]ncc34)n(-c3ccccc3)c(=O)c12 [Compound 258]
IC50 [1]: < 10 µM | IC50 [3]: > 10 µM | IC50 [4]: < 1 µM

CC(=O)Nc1nc2ccc(-c3nn(Cc4cc5cccc(C)c5c(=O)n4-c4ccccc4)c4ncnc(N)c34)cc2[nH]1 [Compound 304]
IC50 [1]: < 0.1 µM | IC50 [2]: > 10 µM | IC50 [3]: > 10 µM

CNC(=O)c1nn(Cc2cc3cccc(C)c3c(=O)n2-c2ccccc2)c2ncnc(N)c12 [Compound 309]
IC50 [1]: < 10 µM | IC50 [3]: > 10 µM | IC50 [4]: < 1 µM

Cc1ccccc1-n1c(Cn2nc(CF)c3c(N)ncnc32)cc2cccc(C)c2c1=O [Compound 310]
IC50 [1]: < 0.1 µM | IC50 [2]: > 10 µM | IC50 [4]: < 0.1 µM

Cc1cccc2cc(Cn3nc(CF)c4c(N)ncnc43)n(-c3ccccc3)c(=O)c12 [Compound 311]
IC50 [1]: < 0.1 µM | IC50 [2]: > 10 µM | IC50 [4]: < 0.1 µM

Cc1ccccc1-n1c(Cn2nc(CC#N)c3c(N)ncnc32)cc2cccc(C)c2c1=O [Compound 312]
IC50 [1]: < 10 µM | IC50 [2]: > 10 µM | IC50 [4]: < 0.1 µM

Cc1ccccc1-n1c(Cn2nc(CO)c3c(N)ncnc32)cc2cccc(C)c2c1=O [Compound 313]
IC50 [1]: < 10 µM | IC50 [3]: > 10 µM | IC50 [4]: < 1 µM

COCc1nn(Cc2cc3cccc(C)c3c(=O)n2-c2ccccc2C)c2ncnc(N)c12 [Compound 314]
IC50 [1]: > 10 µM | IC50 [3]: > 10 µM | IC50 [4]: > 10 µM

Cc1cccc2cc(Cn3nc(C(C)(C)O)c4c(N)ncnc43)n(-c3ccccc3)c(=O)c12 [Compound 318]
IC50 [1]: > 10 µM | IC50 [3]: > 10 µM | IC50 [4]: > 10 µM

CC(=O)c1nn(Cc2cc3cccc(C)c3c(=O)n2-c2ccccc2)c2ncnc(N)c12 [Compound 319]
IC50 [1]: < 10 µM | IC50 [3]: > 10 µM | IC50 [4]: < 1 µM
